Data taken from patent publication US10294234B2, “HIV inhibitor compounds” (priority 2017, dated 2019).
Read-outs that look alike come from different tables or passages of the source.

Assays:
[1] = system: HIV-1 (IIIB) in MT-4 cells; assay: MT-4 HIV assay; assay type: cell-based; conditions: Human immunodeficiency virus 1, MT4, 120 h
Procedure, shortened: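 Antiviral activity was read by Cell Titer Glo after a 5-day, 37 °C culture of MT-4 cells pre-infected with a 1:250 dilution of HIV-1 (IIIB). Compounds were tested as threefold dilution series in complete RPMI. Controls were no drug, mock infection and 5 uM AZT.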

[2] = Procedure, shortened: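 Depletion measured by LC/MS/MS at 2, 12, 25, 45 and 65 minutes after 1 uM compound was added to liver microsomes (0.5 mg/mL; dog, rat, human) with NADPH-regenerating cofactor, in duplicate. In vitro t1/2 converted to Clint.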
[3] = HIV-1 (IIIB), MT-4 cells, 5 days, Cell Titer Glo, read-out: EC50
[4] = human liver microsomes 0.5 mg/mL, 1 uM compound, NADPH
[5] = rat liver microsomes 0.5 mg/mL, 1 uM compound, NADPH

SMILES | EC50 [1, 3] [nM] | Human Pred Cl. ([2]; human, microsomes) [L/H/kg] | Rat. Pred. Cl. ([2]; rat, microsomes) [L/H/kg] | EC50 [1] [nM] | Human Pred Cl. [2, 4] [L/H/kg] | Rat. Pred. Cl. [2, 5] [L/H/kg]
COC(=O)N[C@H](C(=O)NN(Cc1c(F)cc(-c2ccn(C(F)F)n2)cc1F)C[C@H](O)[C@H](Cc1ccc(C#Cc2ccc(N3CC4CCC(C3)N4S(C)(=O)=O)nc2)cc1)NC(=O)[C@@H](NC(=O)OC)C(C)(C)C(F)(F)F)C(C)(C)C [Example 72, Methyl ((5S,8S,9S,14S)-11-(4-(1-(difluoromethyl)-1H-pyrazol-3-yl)-2,6-difluorobenzyl)-9-hydroxy-15,15-dimethyl-8-(4-((6-(8-(methylsulfonyl)-3,8-diazabicyclo[3.2.1]octan-3-yl)pyridin-3-yl)ethynyl)benzyl)-3,6,13-trioxo-5-(1,1,1-trifluoro-2-methylpropan-2-yl)-2-oxa-4,7,11,12-tetraazahexadecan-14-yl)carbamate] | 5.19 | 0.14 | <0.18 |  |  | 
COC(=O)N[C@H](C(=O)NN(Cc1c(F)cc(-c2cn(C(F)F)cn2)cc1F)C[C@H](O)[C@H](Cc1ccc(C#Cc2ccc(N3CC4CCC(C3)N4C3COC3)nc2)cc1)NC(=O)[C@@H](NC(=O)OC)C(C)(C)C(F)(F)F)C(C)(C)C [Example 77, Methyl ((5S,8S,9S,14S)-11-(4-(1-(difluoromethyl)-1H-imidazol-4-yl)-2,6-difluorobenzyl)-9-hydroxy-15,15-dimethyl-8-(4-((6-(8-(oxetan-3-yl)-3,8-diazabicyclo [3.2.1]octan-3-yl)pyridin-3-yl)ethynyl)benzyl)-3,6,13-trioxo-5-(1,1,1-trifluoro-2-methylpropan-2-yl)-2-oxa-4,7,11,12-tetraazahexadecan-14-yl)carbamate] | 2.49 | <0.11 | 0.25 |  |  | 
COC(=O)N[C@H](C(=O)N[C@@H](Cc1ccc(C#Cc2ccc(N3CC4CCC(C3)N4C3COC3)nc2C)cc1)[C@@H](O)CN(Cc1c(F)cc(-c2ccccn2)cc1F)NC(=O)[C@@H](NC(=O)OC)C(C)(C)C(F)(F)F)C(C)(C)C(F)(F)F [Example 78, Methyl ((5S,8S,9S,14S)-11-(2,6-difluoro-4-(pyridin-2-yl)benzyl)-16,16,16-trifluoro-9-hydroxy-15,15-dimethyl-8-(4-((2-methyl-6-(8-(oxetan-3-yl)-3,8-diazabicyclo[3.2.1]octan-3-yl)pyridin-3-yl)ethynyl)benzyl)-3,6,13-trioxo-5-(1,1,1-trifluoro-2-methylpropan-2-yl)-2-oxa-4,7,11,12-tetraazahexadecan-14-yl)carbamate] | 6.27 | <0.11 | <0.18 |  |  | 
COC(=O)N[C@H](C(=O)N[C@@H](Cc1ccc(C#Cc2ccc(N3CCN(C)C(=O)C3)nc2)cc1)[C@@H](O)CN(Cc1c(F)cc(-c2ccn(C(F)F)n2)cc1F)NC(=O)[C@@H](NC(=O)OC)C(C)(C)C(F)(F)F)C(C)(C)C(F)(F)F [Example 81, Methyl ((5S,8S,9S,14S)-11-(4-(1-(difluoromethyl)-1H-pyrazol-3-yl)-2,6-difluorobenzyl)-16,16,16-trifluoro-9-hydroxy-15,15-dimethyl-8-(4-((6-(4-methyl-3-oxopiperazin-1-yl)pyridin-3-yl)ethynyl)benzyl)-3,6,13-trioxo-5-(1,1,1-trifluoro-2-methylpropan-2-yl)-2-oxa-4,7,11,12-tetraazahexadecan-14-yl)carbamate] |  |  |  | 4.39 | <0.11 | 0.39
COC(=O)N[C@H](C(=O)N[C@@H](Cc1ccc(C#Cc2ccc(N3CC4CCC(C3)N4C3COC3)nc2)cc1)[C@@H](O)CN(Cc1c(F)cc(C2CCOCC2)cc1F)NC(=O)[C@@H](NC(=O)OC)C(C)(C)C(F)(F)F)C(C)(C)C(F)(F)F [Example 82, Methyl ((5S,8S,9S,14S)-11-(2,6-difluoro-4-(tetrahydro-2H-pyran-4-yl)benzyl)-16,16,16-trifluoro-9-hydroxy-15,15-dimethyl-8-(4-((6-(8-(oxetan-3-yl)-3,8-diazabicyclo[3.2.1]octan-3-yl)pyridin-3-yl)ethynyl)benzyl)-3,6,13-trioxo-5-(1,1,1-trifluoro-2-methylpropan-2-yl)-2-oxa-4,7,11,12-tetraazahexadecan-14-yl)carbamate] | 4.4 | 0.82 | 0.44 |  |  | 
COC(=O)N[C@H](C(=O)NN(Cc1ccc(-c2ccn(C(F)F)n2)cc1)C[C@H](O)[C@H](Cc1ccc(C#Cc2ccc(N3CC4CCC(C3)N4C3COC3)nc2)cc1)NC(=O)[C@@H](NC(=O)OC)C(C)(C)C(F)(F)F)C(C)(C)C [Example 85, Methyl ((5S,8S,9S,14S)-11-(4-(1-(difluoromethyl)-1H-pyrazol-3-yl)benzyl)-9-hydroxy-15,15-dimethyl-8-(4-((6-(8-(oxetan-3-yl)-3,8-diazabicyclo[3.2.1]octan-3-yl)pyridin-3-yl)ethynyl)benzyl)-3,6,13-trioxo-5-(1,1,1-trifluoro-2-methylpropan-2-yl)-2-oxa-4,7,11,12-tetraazahexadecan-14-yl)carbamate] | 3.78 | 0.13 | 0.19 |  |  | 
COC(=O)N[C@H](C(=O)NN(Cc1c(F)cc(-c2cnn(C(F)F)c2)cc1F)C[C@H](O)[C@H](Cc1ccc(C#Cc2ccc(N3CC4CCC(C3)N4C3COC3)nc2)cc1)NC(=O)[C@@H](NC(=O)OC)C(C)(C)C(F)(F)F)C(C)(C)C [Example 86, Methyl ((5S,8S,9S,14S)-11-(4-(1-(difluoromethyl)-1H-pyrazol-4-yl)-2,6-difluorobenzyl)-9-hydroxy-15,15-dimethyl-8-(4-((6-(8-(oxetan-3-yl)-3,8-diazabicyclo[3.2.1]octan-3-yl)pyridin-3-yl)ethynyl)benzyl)-3,6,13-trioxo-5-(1,1,1-trifluoro-2-methylpropan-2-yl)-2-oxa-4,7,11,12-tetraazahexadecan-14-yl)carbamate] | 2.61 | <0.11 | <0.18 |  |  | 
COC(=O)N[C@H](C(=O)N[C@@H](Cc1ccc(C#Cc2cnc(N3CCN(C4COC4)CC3)nc2)cc1)[C@@H](O)CN(Cc1c(F)cc(-c2ccn(C(F)F)n2)cc1F)NC(=O)[C@@H](NC(=O)OC)C(C)(C)C(F)(F)F)C(C)(C)C(F)(F)F [Example 87, methyl ((5S,8S,9S,14S)-11-(4-(1-(difluoromethyl)-1H-pyrazol-3-yl)-2,6-difluorobenzyl)-16,16,16-trifluoro-9-hydroxy-15,15-dimethyl-8-(4-((2-(4-(oxetan-3-yl)piperazin-1-yl)pyrimidin-5-yl)ethynyl)benzyl)-3,6,13-trioxo-5-(1,1,1-trifluoro-2-methylpropan-2-yl)-2-oxa-4,7,11,12-tetraazahexadecan-14-yl)carbamate] |  |  |  | 4.26 | 0.13 | 0.23
COC(=O)N[C@H](C(=O)NN(Cc1c(F)cc(-c2ccn(C3CC3)n2)cc1F)C[C@H](O)[C@H](Cc1ccc(C#Cc2ccc(N3C[C@H]4C[C@@H]3CN4C3COC3)nc2)cc1)NC(=O)[C@@H](NC(=O)OC)C(C)(C)C(F)(F)F)C(C)(C)C [Example 90, Methyl ((5S,8S,9S,14S)-11-(4-(1-cyclopropyl-1H-pyrazol-3-yl)-2,6-difluorobenzyl)-9-hydroxy-15,15-dimethyl-8-(4-((6-((1R,4R)-5-(oxetan-3-yl)-2,5-diazabicyclo[2.2.1]heptan-2-yl)pyridin-3-yl)ethynyl)benzyl)-3,6,13-trioxo-5-(1,1,1-trifluoro-2-methylpropan-2-yl)-2-oxa-4,7,11,12-tetraazahexadecan-14-yl)carbamate] |  |  |  | 3.45 | 0.14 | 0.67
COC(=O)N[C@H](C(=O)N[C@@H](Cc1ccc(C#Cc2ccc(N3C[C@H]4C[C@@H]3CN4C3COC3)nc2)cc1)[C@@H](O)CN(Cc1c(F)cc(-c2ncccn2)cc1F)NC(=O)[C@@H](NC(=O)OC)C(C)(C)C(F)(F)F)C(C)(C)C(F)(F)F [Example 93, Methyl ((5S,8S,9S,14S)-11-(2,6-difluoro-4-(pyrimidin-2-yl)benzyl)-16,16,16-trifluoro-9-hydroxy-15,15-dimethyl-8-(4-((6-((1R,4R)-5-(oxetan-3-yl)-2,5-diazabicyclo[2.2.1]heptan-2-yl)pyridin-3-yl)ethynyl)benzyl)-3,6,13-trioxo-5-(1,1,1-trifluoro-2-methylpropan-2-yl)-2-oxa-4,7,11,12-tetraazahexadecan-14-yl)carbamate] | 2.49 |  |  |  | 0.19 | 1.13
COC(=O)N[C@H](C(=O)NN(Cc1c(F)cc(-c2ncccn2)cc1F)C[C@H](O)[C@H](Cc1ccc(C#Cc2ccc(N3C[C@H]4C[C@@H]3CN4C3COC3)nc2)cc1)NC(=O)[C@@H](NC(=O)OC)C(C)(C)C(F)(F)F)C(C)(C)C [Example 95] |  |  |  | 2.44 | 0.38 | 1.39
COC(=O)N[C@H](C(=O)N[C@@H](Cc1ccc(C#Cc2ccc(N3CCN(C4COC4)CC3)nc2)cc1)[C@@H](O)CN(Cc1c(F)cc(-c2ccc(F)cn2)cc1F)NC(=O)[C@@H](NC(=O)OC)C(C)(C)C(F)(F)F)C(C)(C)C(F)(F)F [Example 97, Methyl ((5S,8S,9S,14S)-11-(2,6-difluoro-4-(5-fluoropyridin-2-yl)benzyl)-16,16,16-trifluoro-9-hydroxy-15,15-dimethyl-8-(4-((6-(4-(oxetan-3-yl)piperazin-1-yl)pyridin-3-yl)ethynyl)benzyl)-3,6,13-trioxo-5-(1,1,1-trifluoro-2-methylpropan-2-yl)-2-oxa-4,7,11,12-tetraazahexadecan-14-yl)carbamate] |  |  |  | 4.54 | 0.46 | 0.31
